# Marks after values point to notes of the source that are not given here. Where no end group is shown, it is not given here.
# Assays:
# IL-1β = IL-1β production by mouse peritoneal macrophages (LPS, ELISA); assay type: cell-based, C57BL/6 mice; details: 50 μmoL/L, LPS 5 μg/mL, 48 h
# Description: In the test, mice are divided into […], namely a blank control group, a lipopolysaccharide (LPS) model group, a dexamethasone group, and mPEG-SC20k-HM-3 groups at different doses (0.56, 1.12, 2.25, 4.50, 9.00 μmol/L).
# (1) IL-1 production: mice are intraperitoneally injected with 1 mL of broth medium (containing 6% of starch). After three days, mouse peritoneal macrophages are taken aseptically and washed twice with RPMI 1640 medium, and the cell concentration is adjusted to 2×10^6 cells/mL. The cells are injected into a 24-well culture plate, 1 mL per well, and the cells are incubated in a cell incubator for 3 h, and vibrated once every 30 min to make the cells fully adhere. Then the cells are washed twice with culture solution to remove non-adherent cells, are cultured continuously for 48 h after administration, and are centrifuged at 1000 r for 15 min. The supernatant is collected as a sample with IL-1β to be tested. (2) Determination of IL-1 content: various solutions are prepared; tested samples and standard substances with different concentrations (100 μL/well) are added into the corresponding wells, reaction wells are sealed with plate-sealing adhesive tape, and incubation is performed at 37° C. for 90 min; the plate is washed four times; biotinylated antibody working solution (100 μL/well) is added, the reaction wells are sealed with plate-sealing adhesive tape, and incubation is performed at 37° C. for 60 min; the plate is washed four times; enzyme conjugate working solution (100 μL/well) is added, the reaction wells are sealed with plate-sealing adhesive tape, and incubation is performed at 37° C. for 30 min; the plate is washed four times; chromogenic reagent (100 μL/well) is added, and incubation is performed at 37° C. for 10-20 min in the absence of light; stop solution (100 μL/well) is added, and the OD 450 nm absorbance is measured immediately after uniform mixing (within 5 min).
# cotton ball granuloma = assay type: in vivo, SD rats; details: day 8; 5 mg/kg sc once a day (Dexamethasone, G2)
# Description: The rats are randomly divided into a model control group, a positive control (dexamethasone) group, and mPEG-SC20k-HM-3 groups using subcutaneous injection at a high dose, a medium dose and a low dose, a total of 5 groups, and the drugs are administered to each group of animals by subcutaneous injection, for 7 days in succession.
# Rats in each group are anesthetized with pentobarbital sodium (40 mg/kg) by intraperitoneal injection, and the abdominal coat is cut off. The skin in the middle of the lower abdomen is cut open under aseptic condition, and the incision is about 1 cm long. The subcutaneous tissue is expanded by vascular forceps, and 30 mg of sterile dry cotton balls (weighed accurately by an electronic balance before the test, and undergoing conventional autoclaving and drying for later use) are implanted hypodermically into the groin on one side. The incision is sutured, and an appropriate amount of amoxicillin is sprinkled on the incision to prevent infection.
# The drug is administered on the same day after surgery, and is administered for 7 days in succession. On day 8, the rats are killed by cervical dislocation, the cotton balls are removed surgically, the fat tissue is removed, and the […] at 60° C. The mass of granuloma is expressed in mg (granulomatoma)/100 g (body weight). The granuloma mass difference between each administration group and the model control group is compared, and the inhibition rate is calculated. Data statistical analysis is performed on significant differences between the groups.
# Inhibition rate (%)=(average granuloma mass of model control group−average granuloma mass of administration group)/average granuloma mass of model control group×100%.
# [1] = system: tumor in BALB/c nude mice; experiment: in vivo pharmacodynamics (antitumor) of PEG-modified HM-3 in BALB/c nude mice; details: BALB/c nude mice
# Text: Four different types of mPEG-ALD and mPEG-SC with different molecular weights are selected to modify the polypeptide […](named HM-3), i.e., mPEG-ALD5k, mPEG-ALD10k, mPEG-SC10k, mPEG-SC20k, and modification reaction conditions are explored and optimized.
# CIA mouse models = experiment: collagen-induced arthritis (CIA) mouse models; assay type: in vivo, DBA/1 mice; details: for therapeutic effect on collagen-induced arthritis in mice (conclusion): mouse, in vivo
# AIA rat models = experiment: adjuvant-induced arthritis (AIA) rat models; assay type: in vivo, SD rats; details: for therapeutic effect on adjuvant-induced arthritis in rats (conclusion): rat, in vivo
# [2] = Table 1, methotrexate 1 mg/kg, once every 5 days, three times
# [3] = Tables 3 and 5, methotrexate 1 mg/kg
# [4] = Table 2, methotrexate 1 mg/kg, once every 5 days, three times
# [5] = Tables 4 and 6, methotrexate 1 mg/kg
# [6] = high dose 0.8 mg/kg twice a day, 10 days
# [7] = low dose 0.2 mg/kg twice a day, 10 days
# [8] = medium dose 0.4 mg/kg twice a day, 10 days
# [9] = high dose 0.4 mg/kg twice a day, 10 days
# [10] = low dose 0.1 mg/kg twice a day, 10 days
# [11] = medium dose 0.2 mg/kg twice a day, 10 days
# [12] = high dose 3.2 mg/kg twice a day, 10 days
# [13] = low dose 0.8 mg/kg twice a day, 10 days (polypeptide II)
# [14] = medium dose 1.6 mg/kg twice a day, 10 days
# [15] = high dose 1.6 mg/kg three times a day, 10 days
# [16] = low dose 0.4 mg/kg three times a day, 10 days
# [17] = medium dose 0.8 mg/kg three times a day, 10 days
compound,measurement,setting,value
"C[C@@H]1C[C@H]2[C@@H]3CCC4=CC(=O)C=C[C@]4(C)[C@@]3(F)[C@@H](O)C[C@]2(C)[C@@]1(O)C(=O)CO [Dexamethasone, reference compound]",IL-1β content,IL-1β,208.19 ± 13.78 pg/mL
same,inhibition at 50 µM,"IL-1β; Mus musculus, Peritoneal macrophage, read-out: Inhibition rate",79%
same,Inhibition rate of cotton ball granuloma,cotton ball granuloma,61.59** %
same,cotton ball granuloma,cotton ball granuloma,0.11 ± 0.04 mg(cotton ball granuloma)/100 g(weight)
"CC(=O)O[C@H]1C(=O)[C@@]2(C)[C@H]([C@H](OC(=O)c3ccccc3)[C@]3(O)C[C@H](OC(=O)[C@H](O)[C@@H](NC(=O)c4ccccc4)c4ccccc4)C(C)=C1C3(C)C)[C@]1(OC(C)=O)CO[C@@H]1C[C@@H]2O [paclitaxel, reference compound]",antitumor effect in vivo,[1],44.50%
"CN(Cc1cnc2nc(N)nc(N)c2n1)c1ccc(C(=O)N[C@@H](CCC(=O)O)C(=O)O)cc1 [positive control, methotrexate, reference compound]",clinical scoring,CIA mouse models; [2],8.1 ± 1.2
same,swelling of joints,CIA mouse models; [2],0.76 ± 0.17 mm
same,swelling of paws,CIA mouse models; [2],0.95 ± 0.19 mm
same,clinical scoring,CIA mouse models; [3],2.33 ± 2.73
same,swelling of joints,CIA mouse models; [3],−0.19 mm
same,swelling of paws,CIA mouse models; [3],0.21 ± 0.45 mm
same,clinical scoring,AIA rat models; [4],5.0 ± 1.0
same,swelling of left paw,AIA rat models; [4],3.60 ± 0.72 mm
same,swelling of right paw,AIA rat models; [4],0.68 ± 0.19 mm
same,clinical scoring,AIA rat models; [5],4.00 ± 0.00
same,swelling of left paw,AIA rat models; [5],3.23 ± 1.20 mm
same,swelling of right paw,AIA rat models; [5],0.13 ± 0.33 mm
"ACDCRGDCFCGGGGIVRRADRAAVP (cysteine pairing not given here) [polypeptide I, No. 1]",clinical scoring,CIA mouse models; [6],10.4 ± 1.6
same,swelling of joints,CIA mouse models; [6],1.05 ± 0.31 mm
same,swelling of paws,CIA mouse models; [6],1.29 ± 0.26 mm
same,clinical scoring,CIA mouse models; [7],9.7 ± 1.5
same,swelling of joints,CIA mouse models; [7],0.93 ± 0.23 mm
same,swelling of paws,CIA mouse models; [7],1.10 ± 0.22 mm
same,clinical scoring,CIA mouse models; [8],9.1 ± 1.4
same,swelling of joints,CIA mouse models; [8],0.76 ± 0.17 mm
same,swelling of paws,CIA mouse models; [8],0.92 ± 0.18 mm
same,therapeutic effect on collagen-induced arthritis in mice (conclusion),CIA mouse models,CONCLUSION: polypeptide I has therapeutic effect on collagen-induced arthritis in mice
same,clinical scoring,AIA rat models; [9],6.0 ± 1.2
same,swelling of left paw,AIA rat models; [9],4.77 ± 0.95 mm
same,swelling of right paw,AIA rat models; [9],1.25 ± 0.30 mm
same,clinical scoring,AIA rat models; [10],5.7 ± 1.1
same,swelling of left paw,AIA rat models; [10],4.27 ± 0.85 mm
same,swelling of right paw,AIA rat models; [10],1.18 ± 0.31 mm
same,clinical scoring,AIA rat models; [11],5.3 ± 1.0
same,swelling of left paw,AIA rat models; [11],3.81 ± 0.76 mm
same,swelling of right paw,AIA rat models; [11],0.79 ± 0.18 mm
same,therapeutic effect on adjuvant-induced arthritis in rats (conclusion),AIA rat models,CONCLUSION: polypeptide I has therapeutic effect on adjuvant-induced arthritis in rats
"IVRRADRAAVPGGGGRGD [polypeptide II, No. 2]",clinical scoring,CIA mouse models; [12],2.67 ± 2.34
same,swelling of joints,CIA mouse models; [12],−0.18 mm
same,swelling of paws,CIA mouse models; [12],0.23 ± 0.35 mm
same,clinical scoring,CIA mouse models; [13],2.33 ± 3.14
same,swelling of joints,CIA mouse models; [13],−0.19 mm
same,swelling of paws,CIA mouse models; [13],0.13 ± 0.28 mm
same,clinical scoring,CIA mouse models; [14],5.83 ± 2.93
same,swelling of joints,CIA mouse models; [14],0.35 mm
same,swelling of paws,CIA mouse models; [14],0.45 ± 0.41 mm
same,therapeutic effect on collagen-induced arthritis in mice (conclusion),CIA mouse models,CONCLUSION: polypeptide II has therapeutic effect on collagen-induced arthritis in mice
same,clinical scoring,AIA rat models; [15],7.29 ± 3.40
same,swelling of left paw,AIA rat models; [15],4.98 ± 1.97 mm
same,swelling of right paw,AIA rat models; [15],1.97 ± 1.56 mm
same,clinical scoring,AIA rat models; [16],8.29 ± 4.86
same,swelling of left paw,AIA rat models; [16],5.03 ± 1.99 mm
same,swelling of right paw,AIA rat models; [16],1.56 ± 1.66 mm
same,clinical scoring,AIA rat models; [17],6.57 ± 4.24
same,swelling of left paw,AIA rat models; [17],4.50 ± 1.95 mm
same,swelling of right paw,AIA rat models; [17],1.63 ± 1.57 mm
same,therapeutic effect on adjuvant-induced arthritis in rats (conclusion),AIA rat models,"CONCLUSION: polypeptide II has therapeutic effect on adjuvant-induced arthritis, and its effect is higher than that of polypeptide I."
same,antitumor effect in vivo,[1],43.92%
